Counter-ions that a name gives are not always drawn.
Molecular target: T1, human B1 (Homo sapiens, UniProt P46663)
T1 construct: host or cells: CHO-K1
T1 sequence (P46663 1-353): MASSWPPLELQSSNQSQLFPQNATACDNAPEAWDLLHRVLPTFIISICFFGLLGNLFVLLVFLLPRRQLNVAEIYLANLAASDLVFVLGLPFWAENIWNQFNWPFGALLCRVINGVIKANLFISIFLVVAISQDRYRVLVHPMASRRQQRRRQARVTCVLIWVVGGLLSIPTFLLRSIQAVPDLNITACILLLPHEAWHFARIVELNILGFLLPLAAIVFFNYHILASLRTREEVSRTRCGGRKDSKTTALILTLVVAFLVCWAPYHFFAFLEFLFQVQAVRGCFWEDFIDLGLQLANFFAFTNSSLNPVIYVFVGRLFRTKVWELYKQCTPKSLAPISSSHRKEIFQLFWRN
Assay: Calcium flux assay for Bradykinin B1 antagonist, CHO-K1 cell line expressing human B1
Format: cell-based
Settings: CHO-K1 cells expressing human B1, agonist Lys-(Des-Arg)-Bradykinin, read-out: Potency (IC50 value against human B1)
Method in brief: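 CHO-K1 cells expressing human B1, loaded with 5 μM Fluo-4AM (2 h, 37° C) in HEPES buffer pH 7.4 with probenecid and 0.1% BSA, were preincubated 30 min at 25° C with compound (8 concentrations, triplicate, 1% DMSO) before B1 agonist addition. Ca2+ fluorescence monitored at 538 nm; background-normalized integrated values plotted against log antagonist concentration.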

Row | SMILES | IC50
1 | COc1cc(C)c(S(=O)(=O)N(Cc2nnc(C(=O)N(C)Cc3ccc(CN4CCCC4)cc3)o2)C2CC2)c(C)c1 [Ex 281, 5-({Cyclopropyl[(4-methoxy-2,6-dimethylphenyl)sulfonyl]amino}methyl)-N-methyl-N-[4-(pyrrolidin-1-ylmethyl)benzyl]-1,3,4-oxadiazole-2-carboxamide] | < 10 nM
2 | COc1cc(C)c(S(=O)(=O)N(C)Cc2nnc(C(=O)N3CCN(C4CCN(C)CC4)CC3)o2)c(C)c1 [Ex 270, 4-Methoxy-N,2,6-trimethyl-N-[(5-{[4-(1-methylpiperidin-4-yl)piperazin-1-yl]carbonyl}-1,3,4-oxadiazol-2-yl)methyl]benzenesulfonamide trifluoroacetamide] | 100 to 1000 nM
3 | COc1cc(C)c(S(=O)(=O)N(C)Cc2cc(C(=O)NCc3cc(CN4CCCC4)ccc3F)co2)c(C)c1 [Ex 151, N-[2-Fluoro-5-(pyrrolidin-1-ylmethyl)benzyl]-5-({[(4-methoxy-2,6-dimethylphenyl)sulfonyl](methyl)amino}methyl)furan-3-carboxamide trifluoroacetate] | 100 to 1000 nM
4 | COc1cc(C)c(S(=O)(=O)N(C)Cc2cc(C(=O)N(C)Cc3ccc(CN4CCC(O)CC4)cc3)co2)c(C)c1 [Ex 126, N-{4-[(4-Hydroxypiperidin-1-yl)methyl]benzyl}-5-({[(4-methoxy-2,6-dimethylphenyl)sulfonyl](methyl)amino}methyl)-N-methylfuran-3-carboxamide] | 10 to 100 nM
5 | COc1cc(C)c(S(=O)(=O)N(Cc2nc(C(=O)N3CCC(N(C)Cc4ccc(OC)nc4)C3)co2)C2CC2)c(C)c1 (stereo not shown) [Ex 212, N-Cyclopropyl-4-methoxy-N-({4-[(3-{[(6-methoxypyridin-3-yl)methyl](methyl)amino}pyrrolidin-1-yl)carbonyl]-1,3-oxazol-2-yl}methyl)-2,6-dimethylbenzenesulfonamide trifluoroacetate] | 100 to 1000 nM
6 | COc1cc(C)c(S(=O)(=O)N(C)Cc2nnc(C(=O)N3CCN(CC4CCN(C)CC4)CC3)o2)c(C)c1 [Ex 258, 4-Methoxy-N,2,6-trimethyl-N-{[5-({4-[(1-methylpiperidin-4-yl)methyl]piperazin-1-yl}carbonyl)-1,3,4-oxadiazol-2-yl]methyl}benzenesulfonamide] | < 10 nM
7 | COc1cc(C)c(S(=O)(=O)N(C)Cc2nc(C(=O)N3CCN(CCCCN(C)C)CC3)no2)c(C)c1 [Ex 322, N-{[3-({4-[4-(Dimethylamino)butyl]piperazin-1-yl}carbonyl)-1,2,4-oxadiazol-5-yl]methyl}-4-methoxy-N,2,6-trimethylbenzenesulfonamide trifluoroacetate] | 100 to 1000 nM
8 | COc1cc(C)c(S(=O)(=O)N(C)Cc2nc(C(=O)N3CCN(Cc4cccnc4)CC3)no2)c(C)c1 [Ex 323, 4-Methoxy-N,2,6-trimethyl-N-[(3-{[4-(pyridin-3-ylmethyl)piperazin-1-yl]carbonyl}-1,2,4-oxadiazol-5-yl)methyl]benzenesulfonamide] | 100 to 1000 nM
9 | COc1cc(C)c(S(=O)(=O)N(C)Cc2nc(C(=O)NCc3cccc(CN4CCCC4)c3)co2)c(C)c1 [Ex 74, 2-({[(4-Methoxy-2,6-dimethylphenyl)sulfonyl](methyl)amino}methyl)-N-[3-(pyrrolidin-1-ylmethyl)benzyl]-1,3-oxazole-4-carboxamide] | < 10 nM
10 | COc1cc(C)c(S(=O)(=O)N(C)Cc2cc(C(=O)N(C)Cc3ccc(C4=NCCCN4)cc3)co2)c(C)c1 [Ex 10, 5-({[(4-methoxy-2,6-dimethylphenyl)sulfonyl](methyl)amino}methyl)-N-methyl-N-[4-(1,4,5,6-tetrahydropyrimidin-2-yl)benzyl]furan-3-carboxamide] | 10 to 100 nM
11 | COc1cc(C)c(S(=O)(=O)N(C)Cc2cc(C(=O)NCc3ccc(CN4CCC4)cc3)co2)c(C)c1 [Ex 97, N-[4-(Azetidin-1-ylmethyl)benzyl]-5-({[(4-methoxy-2,6-dimethylphenyl)sulfonyl](methyl)amino}methyl)furan-3-carboxamide trifluoroacetate] | 10 to 100 nM
12 | COc1cc(C)c(S(=O)(=O)N(Cc2nc(C(=O)N3CCN(CC4CCN(C)CC4)CC3)co2)C2CC2)c(C)c1 [Ex 191, N-Cyclopropyl-4-methoxy-2,6-dimethyl-N-{[4-({4-[(1-methylpiperidin-4-yl)methyl]piperazin-1-yl}carbonyl)-1,3-oxazol-2-yl]methyl}benzenesulfonamide trifluoroacetate trifluoroacetate] | < 10 nM
13 | COc1cc(C)c(S(=O)(=O)N(Cc2nc(C(=O)N(C)Cc3ccc(CN4CCC(N(C)C)C4)cc3)co2)C2CC2)c(C)c1 (stereo not shown) [Ex 190, 2-({Cyclopropyl[(4-methoxy-2,6-dimethylphenyl)sulfonyl]amino}methyl)-N-(4-{[3-(dimethylamino)pyrrolidin-1-yl]methyl}benzyl)-N-methyl-1,3-oxazole-4-carboxamide] | < 10 nM
14 | CN(CCc1ccc(C2=NCCN2)cc1)C(=O)c1coc(CN(C2CC2)S(=O)(=O)c2ccc(Cl)cc2Cl)n1 [Ex 214, 2-({Cyclopropyl[(2,4-dichlorophenyl)sulfonyl]amino}methyl)-N-{2-[4-(4,5-dihydro-1H-imidazol-2-yl)phenyl]ethyl}-N-methyl-1,3-oxazole-4-carboxamide trifluoroacetate] | 100 to 1000 nM
15 | COc1cc(C)c(S(=O)(=O)N(Cc2nc(C(=O)N3CCC(OC4CCCN(C)C4)CC3)co2)C2CC2)c(C)c1 (stereo not shown) [Ex 248, N-Cyclopropyl-4-methoxy-2,6-dimethyl-N-{[4-({4-[(1-methylpiperidin-3-yl)oxy]piperidin-1-yl}carbonyl)-1,3-oxazol-2-yl]methyl}benzenesulfonamide trifluoroacetate] | 10 to 100 nM
16 | O=C(c1coc(CN(C2CC2)S(=O)(=O)c2c(Cl)cc(Br)cc2Cl)c1)N1CCCC(c2ccc(CN3CCCC3)cc2)C1 (stereo not shown) [Ex 125, 4-Bromo-2,6-dichloro-N-cyclopropyl-N-{[4-({3-[4-(pyrrolidin-1-ylmethyl)phenyl]piperidin-1-yl}carbonyl)furan-2-yl]methyl}benzenesulfonamide trifluoroacetate] | 100 to 1000 nM
17 | COc1cc(C)c(S(=O)(=O)N(Cc2cc(C(=O)N(C)Cc3ccc(CN4CCCC4)cc3)co2)C2CC2)c(C)c1 [Ex 57, 5-({Cyclopropyl[(4-methoxy-2,6-dimethylphenyl)sulfonyl]amino}methyl)-N-methyl-N-[4-(pyrrolidin-1-ylmethyl)benzyl]furan-3-carboxamide] | 10 to 100 nM
18 | COc1cc(C)c(S(=O)(=O)N(Cc2nnc(C(=O)N3CCN(CCN4CCCC4)CC3)o2)C2CC2)c(C)c1 [Ex 277, N-Cyclopropyl-4-methoxy-2,6-dimethyl-N-[(5-{[4-(2-pyrrolidin-1-ylethyl)piperazin-1-yl]carbonyl}-1,3,4-oxadiazol-2-yl)methyl]benzenesulfonamide] | 10 to 100 nM
19 | COc1cc(C)c(S(=O)(=O)N(Cc2nc(C(=O)N3CCC(O)(COCCN(C)C)CC3)co2)C2CC2)c(C)c1 [Ex 246, N-Cyclopropyl-N-({4-[(4-{[2-(dimethylamino)ethoxy]methyl}-4-hydroxypiperidin-1-yl)carbonyl]-1,3-oxazol-2-yl}methyl)-4-methoxy-2,6-dimethylbenzenesulfonamide trifluoroacetate] | 10 to 100 nM
20 | Cc1cc(S(=O)(=O)N(Cc2nc(C(=O)N(C)CCc3ccc(C4=NCCN4)cc3)co2)C2CC2)c(C)cc1Cl [Ex 217, 2-({[(4-Chloro-2,5-dimethylphenyl)sulfonyl](cyclopropyl)amino}methyl)-N-{2-[4-(4,5-dihydro-1H-imidazol-2-yl)phenyl]ethyl}-N-methyl-1,3-oxazole-4-carboxamide trifluoroacetate] | 100 to 1000 nM
21 | COc1cc(C)c(S(=O)(=O)N(Cc2nc(C(=O)NCCC3CCCNC3)co2)C2CC2)c(C)c1 (stereo not shown) [Ex 159a, 2-({Cyclopropyl[(4-methoxy-2,6-dimethylphenyl)sulfonyl]amino}methyl)-N-(2-piperidin-3-ylethyl)-1,3-oxazole-4-carboxamide] | 100 to 1000 nM
22 | COc1cc(C)c(S(=O)(=O)N(Cc2cc(C(=O)N(C)CCc3ccc(C4=NCCN4)cc3)co2)C2CC2)c(C)c1 [Ex 84, 5-({cyclopropyl[(4-methoxy-2,6-dimethylphenyl)sulfonyl]amino}methyl)-N-{2-[4-(4,5-dihydro-1H-imidazol-2-yl)phenyl]ethyl}-N-methylfuran-3-carboxamide trifluoroacetate] | < 10 nM
23 | COc1cc(C)c(S(=O)(=O)N(Cc2nc(C(=O)N(C)Cc3ccc(CN4CCC(OC)C4)cc3)co2)C2CC2)c(C)c1 (stereo not shown) [Ex 182, 2-({Cyclopropyl[(4-methoxy-2,6-dimethylphenyl)sulfonyl]amino}methyl)-N-{4-[(3-methoxypyrrolidin-1-yl)methyl]benzyl}-N-methyl-1,3-oxazole-4-carboxamide] | < 10 nM
24 | COc1cc(C)c(S(=O)(=O)N(C)Cc2noc(C(=O)N3CCN(CC4CCCN(C)C4)CC3)n2)c(C)c1 (stereo not shown) [Ex 303, 4-Methoxy-N,2,6-trimethyl-N-{[5-({4-[(1-methylpiperidin-3-yl)methyl]piperazin-1-yl}carbonyl)-1,2,4-oxadiazol-3-yl]methyl}benzenesulfonamide trifluoroacetamide] | 100 to 1000 nM
25 | COc1cc(C)c(S(=O)(=O)N(C)Cc2nc(C(=O)N(C)Cc3ccc(CN4CCC(OC)C4)cc3)co2)c(C)c1 (stereo not shown) [Ex 169, 2-({[(4-Methoxy-2,6-dimethylphenyl)sulfonyl](methyl)amino}methyl)-N-{4-[(3-methoxypyrrolidin-1-yl)methyl]benzyl}-N-methyl-1,3-oxazole-4-carboxamide] | < 10 nM

From patent US8623859B2, “Bradykinin B1 antagonists” (Evotec AG, priority 2008, dated 2014)
